Assay results reported in ChEMBL document CHEMBL4257449, “New N-(2-phenyl-4-oxo-1,3-thiazolidin-3-yl)-1,2-benzothiazole-3-carboxamides and acetamides as antimicrobial agents” (2017).
In brackets after ≈: the same amount, converted by molar mass.

What was measured:
Penicillium ochrochloron [1] = assay: Antifungal activity against Penicillium ochrochloron ATCC 9112 after 72 hrs by serial dilution method; type: functional; details: ATCC 9112, 72 h
Bacillus cereus [2] = assay: Antibacterial activity against Bacillus cereus after 24 hrs by microdilution method; type: functional
Bacillus cereus [3] = assay: Bactericidal activity against Bacillus cereus incubated for 24 hrs followed by serial sub-cultivation and measured after 24 hrs by microdilution method; type: functional
Micrococcus flavus [4] = assay: Antibacterial activity against Micrococcus flavus ATCC 10240 after 24 hrs by microdilution method; type: functional; details: ATCC 10240, 24 h
Micrococcus flavus [5] = assay: Bactericidal activity against Micrococcus flavus ATCC 10240 incubated for 24 hrs followed by serial sub-cultivation and measured after 24 hrs by microdilution method; type: functional
Staphylococcus aureus [6] = assay: Antibacterial activity against Staphylococcus aureus ATCC 6538 after 24 hrs by microdilution method; type: functional; details: ATCC 6538, 24 h
Staphylococcus aureus [7] = assay: Bactericidal activity against Staphylococcus aureus ATCC 6538 incubated for 24 hrs followed by serial sub-cultivation and measured after 24 hrs by microdilution method; type: functional
Listeria monocytogenes [8] = assay: Antibacterial activity against Listeria monocytogenes NCTC 7973 after 24 hrs by microdilution method; type: functional; details: NCTC 7973, 24 h
Listeria monocytogenes [9] = assay: Bactericidal activity against Listeria monocytogenes NCTC 7973 incubated for 24 hrs followed by serial sub-cultivation and measured after 24 hrs by microdilution method; type: functional
Escherichia coli [10] = assay: Antibacterial activity against Escherichia coli ATCC 35210 after 24 hrs by microdilution method; type: functional; details: ATCC 35210, 24 h
Escherichia coli [11] = assay: Bactericidal activity against Escherichia coli ATCC 35210 incubated for 24 hrs followed by serial sub-cultivation and measured after 24 hrs by microdilution method; type: functional
Enterobacter cloacae [12] = assay: Antibacterial activity against Enterobacter cloacae after 24 hrs by microdilution method; type: functional
Enterobacter cloacae [13] = assay: Bactericidal activity against Enterobacter cloacae incubated for 24 hrs followed by serial sub-cultivation and measured after 24 hrs by microdilution method; type: functional
Pseudomonas aeruginosa [14] = assay: Antibacterial activity against Pseudomonas aeruginosa ATCC 27853 after 24 hrs by microdilution method; type: functional; details: ATCC 27853, 24 h
Pseudomonas aeruginosa [15] = assay: Bactericidal activity against Pseudomonas aeruginosa ATCC 27853 incubated for 24 hrs followed by serial sub-cultivation and measured after 24 hrs by microdilution method; type: functional
Salmonella typhimurium [16] = assay: Antibacterial activity against Salmonella typhimurium ATCC 13311 after 24 hrs by microdilution method; type: functional, Salmonella enterica subsp. enterica serovar Typhimurium; details: Salmonella enterica, ATCC 13311, 24 h
Salmonella typhimurium [17] = assay: Bactericidal activity against Salmonella typhimurium ATCC 13311 incubated for 24 hrs followed by serial sub-cultivation and measured after 24 hrs by microdilution method; type: functional, Salmonella enterica subsp. enterica serovar Typhimurium
Aspergillus versicolor [18] = assay: Antifungal activity against Aspergillus versicolor ATCC 11730 after 72 hrs by serial dilution method; type: functional; details: ATCC 11730, 72 h
Aspergillus fumigatus [19] = assay: Antifungal activity against Aspergillus fumigatus after 72 hrs by serial dilution method; type: functional
Aspergillus fumigatus [20] = assay: Fungicidal activity against Aspergillus fumigatus incubated for 72 hrs followed by serial sub-cultivation for 72 hrs and measured after 72 hrs by serial dilution method; type: functional
Aspergillus versicolor [21] = assay: Fungicidal activity against Aspergillus versicolor ATCC 11730 incubated for 72 hrs followed by serial sub-cultivation for 72 hrs and measured after 72 hrs by serial dilution method; type: functional
Aspergillus ochraceus [22] = assay: Antifungal activity against Aspergillus ochraceus ATCC 12066 after 72 hrs by serial dilution method; type: functional; details: ATCC 12066, 72 h
Aspergillus ochraceus [23] = assay: Fungicidal activity against Aspergillus ochraceus ATCC 12066 incubated for 72 hrs followed by serial sub-cultivation for 72 hrs and measured after 72 hrs by serial dilution method; type: functional
Aspergillus niger [24] = assay: Antifungal activity against Aspergillus niger ATCC 6275 after 72 hrs by serial dilution method; type: functional; details: ATCC 6275, 72 h
Aspergillus niger [25] = assay: Fungicidal activity against Aspergillus niger ATCC 6275 incubated for 72 hrs followed by serial sub-cultivation for 72 hrs and measured after 72 hrs by serial dilution method; type: functional
Trichoderma viride [26] = assay: Antifungal activity against Trichoderma viride IAM 5061 after 72 hrs by serial dilution method; type: functional; details: IAM 5061, 72 h
Trichoderma viride [27] = assay: Fungicidal activity against Trichoderma viride IAM 5061 incubated for 72 hrs followed by serial sub-cultivation for 72 hrs and measured after 72 hrs by serial dilution method; type: functional
Talaromyces funiculosus [28] = assay: Antifungal activity against Penicillium funiculosum ATCC 36839 after 72 hrs by serial dilution method; type: functional; details: ATCC 36839, 72 h
Talaromyces funiculosus [29] = assay: Fungicidal activity against Penicillium funiculosum ATCC 36839 incubated for 72 hrs followed by serial sub-cultivation for 72 hrs and measured after 72 hrs by serial dilution method; type: functional
Penicillium ochrochloron [30] = assay: Fungicidal activity against Penicillium ochrochloron ATCC 9112 incubated for 72 hrs followed by serial sub-cultivation for 72 hrs and measured after 72 hrs by serial dilution method; type: functional
Candida albicans [31] = assay: Antifungal activity against Candida albicans after 72 hrs by serial dilution method; type: functional
Candida albicans [32] = assay: Fungicidal activity against Candida albicans incubated for 72 hrs followed by serial sub-cultivation for 72 hrs and measured after 72 hrs by serial dilution method; type: functional

MIC (Penicillium ochrochloron [1]) | MIC (Bacillus cereus [2]) | MIC (Micrococcus flavus [4]) | MIC (Staphylococcus aureus [6]) | MIC (Listeria monocytogenes [8]) | MIC (Escherichia coli [10]) | MIC (Enterobacter cloacae [12]) | MIC (Pseudomonas aeruginosa [14]) | MIC (Salmonella typhimurium [16]) | MIC (Aspergillus versicolor [18]) | MIC (Aspergillus fumigatus [19]) | SMILES | MBC99.5 (Bacillus cereus [3]) | MBC99.5 (Micrococcus flavus [5]) | MBC99.5 (Staphylococcus aureus [7]) | MBC99.5 (Listeria monocytogenes [9]) | MBC99.5 (Escherichia coli [11]) | MBC99.5 (Enterobacter cloacae [13]) | MBC99.5 (Pseudomonas aeruginosa [15]) | MBC99.5 (Salmonella typhimurium [17]) | MFC99.5 (Aspergillus fumigatus [20]) | also measured
112 µM (≈ 39.8 µg/mL) | 225 µM (≈ 80 µg/mL) | 225 µM (≈ 80 µg/mL) | 225 µM (≈ 80 µg/mL) | 225 µM (≈ 80 µg/mL) | 112 µM (≈ 39.8 µg/mL) | 112 µM (≈ 39.8 µg/mL) | 225 µM (≈ 80 µg/mL) | 225 µM (≈ 80 µg/mL) | 225 µM (≈ 80 µg/mL) | 112 µM (≈ 39.8 µg/mL) | O=C(NN1C(=O)CSC1c1ccccc1)c1nsc2ccccc12 (stereo not drawn) | 42.2 ×10⁻² umol/ml | 42.2 ×10⁻² umol/ml | 42.2 ×10⁻² umol/ml | 42.2 ×10⁻² umol/ml | 22.5 ×10⁻² umol/ml | 22.5 ×10⁻² umol/ml | 42.2 ×10⁻² umol/ml | 42.2 ×10⁻² umol/ml | 22.5 ×10⁻² umol/ml | MFC99.5 (Aspergillus versicolor [21]): 42.2 ×10⁻² umol/ml; MIC (Aspergillus ochraceus [22]): 28 µM (≈ 9.95 µg/mL); MFC99.5 (Aspergillus ochraceus [23]): 5.6 ×10⁻² umol/ml; MIC (Aspergillus niger [24]): 112 µM (≈ 39.8 µg/mL); MFC99.5 (Aspergillus niger [25]): 22.5 ×10⁻² umol/ml; MIC (Trichoderma viride [26]): 56 µM (≈ 19.9 µg/mL); MFC99.5 (Trichoderma viride [27]): 11.2 ×10⁻² umol/ml; MIC (Talaromyces funiculosus [28]): 225 µM (≈ 80 µg/mL); MFC99.5 (Talaromyces funiculosus [29]): 42.2 ×10⁻² umol/ml; MFC99.5 (Penicillium ochrochloron [30]): 22.5 ×10⁻² umol/ml; MIC (Candida albicans [31]): 253 µM (≈ 89.9 µg/mL); MFC99.5 (Candida albicans [32]): 42.2 ×10⁻² umol/ml
54 µM (≈ 20.2 µg/mL) | 214 µM (≈ 79.9 µg/mL) | 295 µM (≈ 110 µg/mL) | 214 µM (≈ 79.9 µg/mL) | 214 µM (≈ 79.9 µg/mL) | 214 µM (≈ 79.9 µg/mL) | 214 µM (≈ 79.9 µg/mL) | 214 µM (≈ 79.9 µg/mL) | 214 µM (≈ 79.9 µg/mL) | 214 µM (≈ 79.9 µg/mL) | 107 µM (≈ 40 µg/mL) | O=C(NN1C(=O)CSC1c1ccccc1F)c1nsc2ccccc12 (stereo not drawn) | 40.2 ×10⁻² umol/ml | 40.2 ×10⁻² umol/ml | 40.2 ×10⁻² umol/ml | 40.2 ×10⁻² umol/ml | 40.2 ×10⁻² umol/ml | 40.2 ×10⁻² umol/ml | 40.2 ×10⁻² umol/ml | 40.2 ×10⁻² umol/ml | 21.4 ×10⁻² umol/ml | MFC99.5 (Aspergillus versicolor [21]): 40.2 ×10⁻² umol/ml; MIC (Aspergillus ochraceus [22]): 80 µM (≈ 29.9 µg/mL); MFC99.5 (Aspergillus ochraceus [23]): 21.4 ×10⁻² umol/ml; MIC (Aspergillus niger [24]): 107 µM (≈ 40 µg/mL); MFC99.5 (Aspergillus niger [25]): 21.4 ×10⁻² umol/ml; MIC (Trichoderma viride [26]): 27 µM (≈ 10.1 µg/mL); MFC99.5 (Trichoderma viride [27]): 5.4 ×10⁻² umol/ml; MIC (Talaromyces funiculosus [28]): 107 µM (≈ 40 µg/mL); MFC99.5 (Talaromyces funiculosus [29]): 21.4 ×10⁻² umol/ml; MFC99.5 (Penicillium ochrochloron [30]): 10.7 ×10⁻² umol/ml; MIC (Candida albicans [31]): 107 µM (≈ 40 µg/mL); MFC99.5 (Candida albicans [32]): 21.4 ×10⁻² umol/ml
116 µM (≈ 40.3 µg/mL) | 241 µM (≈ 83.8 µg/mL) | 362 µM (≈ 126 µg/mL) | 241 µM (≈ 83.8 µg/mL) | 482 µM (≈ 168 µg/mL) | 362 µM (≈ 126 µg/mL) | 362 µM (≈ 126 µg/mL) | 362 µM (≈ 126 µg/mL) | 241 µM (≈ 83.8 µg/mL) | 116 µM (≈ 40.3 µg/mL) | 464 µM (≈ 161 µg/mL) | O=C(Cc1nsc2ccccc12)N/N=C/c1c(F)cccc1Cl | 48.2 ×10⁻² umol/ml | 48.2 ×10⁻² umol/ml | 48.2 ×10⁻² umol/ml | 96.4 ×10⁻² umol/ml | 48.2 ×10⁻² umol/ml | 48.2 ×10⁻² umol/ml | 48.2 ×10⁻² umol/ml | 48.2 ×10⁻² umol/ml | 92.8 ×10⁻² umol/ml | MFC99.5 (Aspergillus versicolor [21]): 23.2 ×10⁻² umol/ml; MIC (Aspergillus ochraceus [22]): 116 µM (≈ 40.3 µg/mL); MFC99.5 (Aspergillus ochraceus [23]): 23.2 ×10⁻² umol/ml; MIC (Aspergillus niger [24]): 116 µM (≈ 40.3 µg/mL); MFC99.5 (Aspergillus niger [25]): 23.2 ×10⁻² umol/ml; MIC (Trichoderma viride [26]): 116 µM (≈ 40.3 µg/mL); MFC99.5 (Trichoderma viride [27]): 23.2 ×10⁻² umol/ml; MIC (Talaromyces funiculosus [28]): 116 µM (≈ 40.3 µg/mL); MFC99.5 (Talaromyces funiculosus [29]): 23.2 ×10⁻² umol/ml; MFC99.5 (Penicillium ochrochloron [30]): 23.2 ×10⁻² umol/ml; MIC (Candida albicans [31]): 464 µM (≈ 161 µg/mL); MFC99.5 (Candida albicans [32]): 58 ×10⁻² umol/ml
402 µM (≈ 150 µg/mL) | 214 µM (≈ 79.9 µg/mL) | 214 µM (≈ 79.9 µg/mL) | 107 µM (≈ 40 µg/mL) | 214 µM (≈ 79.9 µg/mL) | 107 µM (≈ 40 µg/mL) | 107 µM (≈ 40 µg/mL) | 107 µM (≈ 40 µg/mL) | 107 µM (≈ 40 µg/mL) | 402 µM (≈ 150 µg/mL) | 107 µM (≈ 40 µg/mL) | O=C(NN1C(=O)CSC1c1ccc(F)cc1)c1nsc2ccccc12 (stereo not drawn) | 40.2 ×10⁻² umol/ml | 40.2 ×10⁻² umol/ml | 21.4 ×10⁻² umol/ml | 40.2 ×10⁻² umol/ml | 21.4 ×10⁻² umol/ml | 21.4 ×10⁻² umol/ml | 21.4 ×10⁻² umol/ml | 21.4 ×10⁻² umol/ml | 21.4 ×10⁻² umol/ml | MFC99.5 (Aspergillus versicolor [21]): 80.4 ×10⁻² umol/ml; MIC (Aspergillus ochraceus [22]): 402 µM (≈ 150 µg/mL); MFC99.5 (Aspergillus ochraceus [23]): 80.4 ×10⁻² umol/ml; MIC (Aspergillus niger [24]): 402 µM (≈ 150 µg/mL); MFC99.5 (Aspergillus niger [25]): 80.4 ×10⁻² umol/ml; MIC (Trichoderma viride [26]): 402 µM (≈ 150 µg/mL); MFC99.5 (Trichoderma viride [27]): 80.4 ×10⁻² umol/ml; MIC (Talaromyces funiculosus [28]): 214 µM (≈ 79.9 µg/mL); MFC99.5 (Talaromyces funiculosus [29]): 53.6 ×10⁻² umol/ml; MFC99.5 (Penicillium ochrochloron [30]): 80.4 ×10⁻² umol/ml; MIC (Candida albicans [31]): 80 µM (≈ 29.9 µg/mL); MFC99.5 (Candida albicans [32]): 10.7 ×10⁻² umol/ml
